Numbers after ± are expanded uncertainties.
Settings: Liquid, Bellows volumetry

CC1CCCCC1 [methylcyclohexane]
mass density [kg/m3]
Settings	410 K	450 K	500 K	550 K	600 K
10000 kPa	680.503 ± 1.5	645.737 ± 1.4	595.224 ± 1.3	537.032 ± 1.2	–
12000 kPa	–	–	–	–	485.331 ± 1.2
20000 kPa	695.044 ± 1.5	664.914 ± 1.5	623.145 ± 1.4	579.029 ± 1.3	532.582 ± 1.2
30000 kPa	707.272 ± 1.6	680.595 ± 1.5	643.213 ± 1.4	605.816 ± 1.3	567.711 ± 1.3
40000 kPa	717.821 ± 1.6	693.215 ± 1.5	659.481 ± 1.5	626.206 ± 1.4	592.364 ± 1.3
50000 kPa	727.698 ± 1.6	704.34 ± 1.6	672.946 ± 1.5	642.447 ± 1.4	611.576 ± 1.4
60000 kPa	736.124 ± 1.6	714.464 ± 1.6	684.828 ± 1.5	656.179 ± 1.4	627.511 ± 1.4
70000 kPa	743.853 ± 1.6	723.281 ± 1.6	695.54 ± 1.5	668.08 ± 1.5	641.114 ± 1.4
80000 kPa	750.846 ± 1.7	731.598 ± 1.6	704.872 ± 1.6	678.738 ± 1.5	653.239 ± 1.4
90000 kPa	757.777 ± 1.7	739.304 ± 1.6	713.602 ± 1.6	688.637 ± 1.5	664.012 ± 1.5
100000 kPa	764.111 ± 1.7	746.296 ± 1.6	721.454 ± 1.6	697.29 ± 1.5	673.632 ± 1.5
120000 kPa	776.018 ± 1.7	759.037 ± 1.7	735.845 ± 1.6	713.086 ± 1.6	690.895 ± 1.5
140000 kPa	786.383 ± 1.7	770.433 ± 1.7	748.645 ± 1.6	726.911 ± 1.6	705.698 ± 1.6
160000 kPa	795.899 ± 1.8	780.708 ± 1.7	759.878 ± 1.7	739.33 ± 1.6	718.93 ± 1.6
180000 kPa	804.482 ± 1.8	790.183 ± 1.7	770.353 ± 1.7	750.159 ± 1.7	730.911 ± 1.6
200000 kPa	812.647 ± 1.8	798.897 ± 1.8	779.786 ± 1.7	760.464 ± 1.7	741.384 ± 1.6

From the NIST ThermoML archive (doi:10.1007/s10765-017-2241-7)
